Results from patent US6479435B1, “Diaryl ethers and processes for their preparation and herbicidal and desiccant compositions containing them” (ISK Americas Incorporated, priority 1997, dated 2002).

Key:
Format in all cases: in vivo
[1] = system: soybean (Glycine max L., var. Pella 86, SOY); experiment: Post-emerge greenhouse test, crop damage rating; settings: 14 days after application
Summary of the method: (§1)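 Plants at the 2-3 leaf stage, sown 8-21 days earlier, were track-sprayed post-emergence with compound in acetone plus 0.25% v/v non-ionic surfactant at 63-1000 g ai/ha (187 l/ha). Damage was rated at 14 days on a 0-100 scale (0 none, 100 all plants dead), for both crop injury and weed control.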

[2] = system: field corn (Zea mays L., var. Dekalb 535, CORN); experiment: Pre-emerge greenhouse test, crop damage rating; settings: 14 days after application, rating scale 0-100
Summary of the method: (§2)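 Seeds sown in sandy loam one day before track-sprayer application of acetone solutions at 125–1000 g ai/ha (187 l/ha), then surface-watered to incorporate and bottom-watered. Injury scored visually at 14 days on a 0–100 scale (0 no damage, 100 complete death).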

[3] = system: upland rice (Oryza sp., var.Tebonnet, RICE); experiment: Pre-emerge greenhouse test, crop damage rating; settings: 125 g ai/ha, 14 days after application, rating scale 0-100
Summary of the method: as §2

[4] = system: soybean (Glycine max L., var. Pella 86, SOY); experiment: Pre-emerge greenhouse test, crop damage rating; settings: 14 days after application, rating scale 0-100
Summary of the method: as §2

[5] = system: velvetleaf (Abutilon theophrasti, ABUTH); experiment: Pre-emerge greenhouse herbicide test, phytotoxicity rating; settings: 14 days after application, rating scale 0-100
Summary of the method: as §2

[6] = system: ivyleaf morningglory (Ipomoea hederacea, IPOHE); experiment: as above; settings: 14 days after application, rating scale 0-100
Summary of the method: as §2

[7] = system: green foxtail (Setaria viridis, SETVI); experiment: as above; settings: 14 days after application, rating scale 0-100
Summary of the method: as §2

[8] = system: common ragweed (Ambrosia artemisiifolia L., AMBEL); experiment: as above; settings: 14 days after application, rating scale 0-100
Summary of the method: as §2

[9] = system: barnyardgrass (Echinochloa crusgalli, ECHCG); experiment: as above; settings: 14 days after application, rating scale 0-100
Summary of the method: as §2

[10] = system: redroot pigweed (Amaranthus retroflexus, AMARE); experiment: as above; settings: 14 days after application, rating scale 0-100
Summary of the method: as §2

[11] = system: Johnsongrass (Sorghum halepense, SORHA); experiment: as above; settings: 14 days after application, rating scale 0-100
Summary of the method: as §2

[12] = system: sicklepod (Cassia obtusifolia, CASOB); experiment: as above; settings: 14 days after application, rating scale 0-100
Summary of the method: as §2

[13] = system: large crabgrass (Digitaria sanguinalis, DIGSA); experiment: as above; settings: 14 days after application, rating scale 0-100
Summary of the method: as §2

[14] = system: lambsquarters (Chenopodium album, CHEAL); experiment: as above; settings: 14 days after application, rating scale 0-100
Summary of the method: as §2

[15] = system: common ragweed (Ambrosia artemisiifolia L., AMBEL); experiment: Post-emerge greenhouse herbicide test, phytotoxicity rating; settings: 14 days after application
Summary of the method: as §1

[16] = system: field corn (Zea mays L., var. Dekalb 535, CORN); experiment: Post-emerge greenhouse test, crop damage rating; settings: 14 days after application
Summary of the method: as §1

[17] = system: upland rice (Oryza sp., var.Tebonnet, RICE); experiment: Post-emerge greenhouse test, crop damage rating; settings: 14 days after application
Summary of the method: as §1

[18] = system: velvetleaf (Abutilon theophrasti, ABUTH); experiment: Post-emerge greenhouse herbicide test, phytotoxicity rating; settings: 14 days after application
Summary of the method: as §1

[19] = system: ivyleaf morningglory (Ipomoea hederacea, IPOHE); experiment: as above; settings: 14 days after application
Summary of the method: as §1

[20] = system: green foxtail (Setaria viridis, SETVI); experiment: as above; settings: 14 days after application
Summary of the method: as §1

[21] = system: barnyardgrass (Echinochloa crusgalli, ECHCG); experiment: as above; settings: 14 days after application
Summary of the method: as §1

[22] = system: redroot pigweed (Amaranthus retroflexus, AMARE); experiment: as above; settings: 14 days after application
Summary of the method: as §1

[23] = system: Johnsongrass (Sorghum halepense, SORHA); experiment: as above; settings: 14 days after application
Summary of the method: as §1

[24] = system: large crabgrass (Digitaria sanguinalis, DIGSA); experiment: as above; settings: 14 days after application
Summary of the method: as §1

[25] = system: lambsquarters (Chenopodium album, CHEAL); experiment: as above; settings: 14 days after application
Summary of the method: as §1

Cn1nc(-c2cc(Oc3ccc(C#N)cn3)c(Cl)cc2F)c(Cl)c1C(F)(F)F [Compound 1-4]
SOY crop damage rating (0-100) ([1]; 63 g al/ha): 0 | SOY crop damage rating (0-100) ([1]; 500 g al/ha): 80 | crop damage rating CORN ([2]; 125 g ai/ha): 10 | crop damage rating CORN ([2]; 500 g ai/ha): 0 | crop damage rating RICE [3]: 30 | crop damage rating SOY ([4]; 125 g ai/ha): 10 | crop damage rating SOY ([4]; 500 g ai/ha): 0 | phytotoxicity rating ABUTH ([5]; 125 g ai/ha): 0 | phytotoxicity rating ABUTH ([5]; 500 g ai/ha): 80 | phytotoxicity rating IPOHE ([6]; 125 g ai/ha): 0 | phytotoxicity rating IPOHE ([6]; 500 g ai/ha): 30 | phytotoxicity rating SETVI ([7]; 125 g ai/ha): 90 | phytotoxicity rating SETVI ([7]; 500 g ai/ha): 99 | phytotoxicity rating AMBEL ([8]; 125 g ai/ha): 0 | phytotoxicity rating AMBEL ([8]; 500 g ai/ha): 20 | phytotoxicity rating ECHCG ([9]; 125 g ai/ha): 0 | phytotoxicity rating ECHCG ([9]; 500 g ai/ha): 20 | phytotoxicity rating AMARE ([10]; 125 g ai/ha): 100 | phytotoxicity rating AMARE ([10]; 500 g ai/ha): 100 | phytotoxicity rating SORHA ([11]; 125 g ai/ha): 20 | phytotoxicity rating SORHA ([11]; 500 g ai/ha): 95 | phytotoxicity rating CASOB ([12]; 125 g ai/ha): 0 | phytotoxicity rating CASOB ([12]; 500 g ai/ha): 0 | phytotoxicity rating DIGSA ([13]; 125 g ai/ha): 50 | phytotoxicity rating DIGSA ([13]; 500 g ai/ha): 50 | phytotoxicity rating CHEAL ([14]; 125 g ai/ha): 90 | phytotoxicity rating CHEAL ([14]; 500 g ai/ha): 95 | AMBEL phytotoxicity rating (0-100) ([15]; 63 g al/ha): 20 | AMBEL phytotoxicity rating (0-100) ([15]; 500 g al/ha): 70 | CORN crop damage rating (0-100) ([16]; 63 g al/ha): 0 | CORN crop damage rating (0-100) ([16]; 500 g al/ha): 0 | RICE crop damage rating (0-100) ([17]; 63 g al/ha): 20 | RICE crop damage rating (0-100) ([17]; 500 g al/ha): 50 | ABUTH phytotoxicity rating (0-100) ([18]; 63 g al/ha): 30 | ABUTH phytotoxicity rating (0-100) ([18]; 500 g al/ha): 90 | IPOHE phytotoxicity rating (0-100) ([19]; 63 g al/ha): 70 | IPOHE phytotoxicity rating (0-100) ([19]; 500 g al/ha): 100 | SETVI phytotoxicity rating (0-100) ([20]; 63 g al/ha): 0 | SETVI phytotoxicity rating (0-100) ([20]; 500 g al/ha): 70 | ECHCG phytotoxicity rating (0-100) ([21]; 63 g al/ha): 0 | ECHCG phytotoxicity rating (0-100) ([21]; 500 g al/ha): 50 | AMARE phytotoxicity rating (0-100) ([22]; 63 g al/ha): 100 | AMARE phytotoxicity rating (0-100) ([22]; 500 g al/ha): 100 | SORHA phytotoxicity rating (0-100) ([23]; 63 g al/ha): 40 | SORHA phytotoxicity rating (0-100) ([23]; 500 g al/ha): 80 | DIGSA phytotoxicity rating (0-100) ([24]; 63 g al/ha): 20 | DIGSA phytotoxicity rating (0-100) ([24]; 500 g al/ha): 40 | CHEAL phytotoxicity rating (0-100) ([25]; 63 g al/ha): 0 | CHEAL phytotoxicity rating (0-100) ([25]; 500 g al/ha): 100
